Residues, ends and D or L forms follow the SMILES beside them.
Tests used:
[1] = target: T1, human NMUR1 receptor (Homo sapiens, UniProt Q9HB89); experiment: IP1 Gq HTRF assay, activation of human NMUR1 in buffer; format: cell-based; conditions: CHO-K1 cells expressing human NMUR1, stimulation buffer with 0.1% BSA; read-out: EC50 (hNMUR1) buffer
T1 construct: expressed in transfected cells; host or cells: CHO-K1
T1 sequence (Q9HB89 1-426): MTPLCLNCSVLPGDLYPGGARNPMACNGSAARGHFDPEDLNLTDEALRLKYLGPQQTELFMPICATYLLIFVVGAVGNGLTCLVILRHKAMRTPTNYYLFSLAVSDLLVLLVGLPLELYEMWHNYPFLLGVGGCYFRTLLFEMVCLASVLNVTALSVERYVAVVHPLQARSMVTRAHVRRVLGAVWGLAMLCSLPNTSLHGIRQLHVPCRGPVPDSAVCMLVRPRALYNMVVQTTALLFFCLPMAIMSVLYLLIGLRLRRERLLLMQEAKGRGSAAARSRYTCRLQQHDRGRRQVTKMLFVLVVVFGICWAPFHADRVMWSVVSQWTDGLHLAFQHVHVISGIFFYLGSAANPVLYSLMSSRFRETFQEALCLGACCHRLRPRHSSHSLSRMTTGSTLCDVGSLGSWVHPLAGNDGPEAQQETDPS
Outline: (§1)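 IP-One HTRF competition (665/620 nm ratio) read after 1 h agonist exposure at 37 °C in pH 7.4 HEPES/HBSS stimulation buffer containing 50 mM LiCl, 0.1% BSA, 1% DMSO. Cells: CHO-K1 stably expressing human NMUR2 or NMUR1. EC50 by 4-parameter nonlinear regression of 8-point curves.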

[2] = target: T2, human NMUR2 receptor (Homo sapiens, UniProt Q9GZQ4); experiment: Radioligand binding competition assay (RLB), human NMUR2 receptor binding (SPA, [125I]-Neuromedin U-25); set-up: host or cells: CHO-K1; conditions: CHO-K1 hNMUR2 cell membranes, 4 hours at RT
T2 sequence (Q9GZQ4 whole entry): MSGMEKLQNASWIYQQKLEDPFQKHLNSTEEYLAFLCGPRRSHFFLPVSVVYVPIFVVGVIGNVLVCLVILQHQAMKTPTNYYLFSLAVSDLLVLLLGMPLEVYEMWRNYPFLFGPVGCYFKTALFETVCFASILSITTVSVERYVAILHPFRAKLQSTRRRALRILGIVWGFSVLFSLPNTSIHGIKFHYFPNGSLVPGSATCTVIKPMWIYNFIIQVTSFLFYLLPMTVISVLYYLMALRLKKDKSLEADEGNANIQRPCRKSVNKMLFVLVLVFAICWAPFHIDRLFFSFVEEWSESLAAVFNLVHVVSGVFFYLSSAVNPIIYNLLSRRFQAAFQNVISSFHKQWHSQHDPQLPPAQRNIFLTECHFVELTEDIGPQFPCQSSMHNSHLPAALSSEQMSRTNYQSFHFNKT
Excerpt: Example 1: Radioligand Binding Competition Assay (RLB) Human NMUR2 Receptor Binding
The test is based on membranes prepared from a Human NMUR2/Apoaequorin Stable Cell Line (Creative Biogene, Cat. No. CSC-RG1309).
Cell Line Description: CHO-NMUR2 cell line is clonally derived from a CHO-K1 cell line, which has been transfected with a bicistronic expression plasmid containing the sequence coding for the human neuromedin U receptor 2 (AF242874.1). MOSAIC-ID: CL16550616.
Membrane preparation: Cells were broken by nitrogen cavitation (900 psi, 1 hour). Intact cells were removed by centrifugation (400 rcf (relative centrifugal force), 10 minutes, 4° C.) before the crude membrane fraction was collected by ultracentrifugation (20.000 rcf, 1 hour, 4° C.).
2) Human NMUR2 Receptor Binding Assay (Radioligand: [125I]-Neuromedin U-25 (Human))
In this Scintillation Proximity Assay (SPA) design, the membranes immobilize directly to the PVT-WGA-PEI type A beads (polyethyleneimine treated polyvinyltoluene beads coupled to wheatgerm agglutinin, Perkin Elmer) via interactions of wheat germ agglutinate and glycosylated membrane structures. Thereby the radioactively la-belled ligand, bound to NMUR2 receptors on the membrane, comes in close proximity to the solid scintillator of the PVT bead. Radioactive human neuromedin U-25 then stimulates the scintillant to emit light. In contrast, radioligand not bound to the receptor is too distant from the bead to elicit a signal.
For the Scintillation Proximity Assay the CHO-K1 hNMUR2 cell membranes and SPA-beads are diluted to concentrations, which assure a robust signal to background ratio. The SPA incubation buffer consists of 25 mM Hepes (pH=7.0), 5 mM MgCl2, 1 mM CaCl2, 10 ug/mL Saponine and 0.1% bovine serum albumin and is used for all dilutions.
Final assay setup in 96-well plate: 20 μL of 10× test compound dilutions+40 μL of 5× [125l]-Neuromedin U-25 (1× approx. 30 pM; 2000 μCi/mmol)+60 μL membrane dilution (approx. 2.5 μg membrane protein)+80 μL SPA bead dilution (0.75 mg).
The assay is incubated for 4 hours at RT, including controls for specific binding where no displacer is added and non-specific binding by adding unlabeled hNMU-25 at 100 nM. Bound radioactivity is determined by scintillation counting (MicroBeta Trilux 1450, Perkin Elmer, detection of 125I decay). […] The system assumes one binding site with no relevant radioligand depletion (<10%) and that the binding is reversible and at equilibrium.

[3] = target: T2, human NMUR2 receptor; experiment: IP1 Gq HTRF assay, activation of human NMUR2 in buffer; format: cell-based; set-up: expressed in transfected cells; host or cells: CHO-K1; conditions: CHO-K1 cells expressing human NMUR2, stimulation buffer with 0.1% BSA; read-out: EC50 (hNMUR2) buffer
Outline: as §1

SMILES: CCCC[C@H](NC(=O)[C@H](CC(C)C)N(C)C(=O)[C@H](Cc1ccccc1)NC(=O)[C@H](Cc1ccc(O)cc1)NC(=O)CN1CCN(CCNC(=O)CN(C)C(=O)CN(C)C(=O)CN(C)C(=O)CN(C)C(=O)CN(C)C(=O)CN(C)C(=O)CN(C)C(=O)CN(C)C(=O)CN(C)C(=O)CN(C)C(=O)CN(C)C(=O)CN(C)C(=O)CN(C)C(=O)CN(C)C(=O)CN(C)C(=O)CC[C@H](NC(=O)CC[C@H](NC(=O)CC[C@H](NC(=O)CCCCCCCCCCCCCCCCCCC(=O)O)C(=O)O)C(=O)O)C(=O)O)CC1)C(=O)N[C@@H](CCCNC(=N)N)C(=O)N1CCC[C@H]1C(=O)N[C@@H](CCCNC(=N)N)C(=O)NCC(N)=O [Compound 9, C20DA-gGlu3-Sar15-AEPipAc-Tyr-Phe-NMeLeu-Nle-Arg-Pro-Arg-Gly-NH2] (HELM PEPTIDE1{[O=C(O)CCCCCCCCCCCCCCCCCCC(=O)[*:2]].[gGlu].[gGlu].[gGlu].[Sar].[Sar].[Sar].[Sar].[Sar].[Sar].[Sar].[Sar].[Sar].[Sar].[Sar].[Sar].[Sar].[Sar].[Sar].[O=C(CN1CCN(CCN[*:1])CC1)[*:2]].Y.F.[meL].[Nle].R.P.R.G.[am]}$$$$V2.0)
- EC50 [1]: 220 nM
- Ki [2]: 58.3 nM
- EC50 [3]: 2.8 nM

SMILES: CCCC[C@H](NC(=O)[C@H](CC(C)C)N(C)C(=O)[C@H](Cc1ccccc1)NC(=O)[C@H](Cc1ccc(O)cc1)NC(=O)CN1CCN(CCNC(=O)CN(C)C(=O)CN(C)C(=O)CN(C)C(=O)CN(C)C(=O)CN(C)C(=O)CN(C)C(=O)CN(C)C(=O)CN(C)C(=O)CN(C)C(=O)CN(C)C(=O)CN(C)C(=O)CN(C)C(=O)CN(C)C(=O)CN(C)C(=O)CN(C)C(=O)CC[C@H](NC(=O)CC[C@H](NC(=O)CC[C@H](NC(=O)CCCCCCCCCCCCCCCCCCC(=O)O)C(=O)O)C(=O)O)C(=O)O)CC1)C(=O)N[C@@H](CCCNC(=N)N)C(=O)N(C)[C@@H](C)C(=O)N[C@@H](CCCNC(=N)N)C(=O)NCC(N)=O [Compound 10, C20DA-gGlu3-Sar15-AEPipAc-Tyr-Phe-NMeLeu-Nle-Arg-NMeAla-Arg-Gly-NH2] (HELM PEPTIDE1{[O=C(O)CCCCCCCCCCCCCCCCCCC(=O)[*:2]].[gGlu].[gGlu].[gGlu].[Sar].[Sar].[Sar].[Sar].[Sar].[Sar].[Sar].[Sar].[Sar].[Sar].[Sar].[Sar].[Sar].[Sar].[Sar].[O=C(CN1CCN(CCN[*:1])CC1)[*:2]].Y.F.[meL].[Nle].R.[meA].R.G.[am]}$$$$V2.0)
- EC50 [1]: 720 nM
- Ki [2]: 204 nM
- EC50 [3]: 4.1 nM

SMILES: CCCC[C@H](NC(=O)[C@H](CC(C)C)N(C)C(=O)[C@H](Cc1ccccc1)NC(=O)[C@H](Cc1ccc(O)cc1)NC(=O)CN1CCN(CCNC(=O)CN(C)C(=O)CN(C)C(=O)CN(C)C(=O)CN(C)C(=O)CN(C)C(=O)CN(C)C(=O)CN(C)C(=O)CN(C)C(=O)CN(C)C(=O)CN(C)C(=O)CN(C)C(=O)CN(C)C(=O)CN(C)C(=O)CN(C)C(=O)CN(C)C(=O)CC[C@H](NC(=O)CC[C@H](NC(=O)CC[C@H](NC(=O)CCCCCCCCCCCCCCCCC(=O)O)C(=O)O)C(=O)O)C(=O)O)CC1)C(=O)N[C@@H](CCCNC(=N)N)C(=O)N(C)[C@@H](C)C(=O)N[C@@H](CCCNC(=N)N)C(=O)NCC(N)=O [Compound 11, C18DA-gGlu3-Sar15-AEPipAc-Tyr-Phe-NMeLeu-Nle-Arg-NMeAla-Arg-Gly-NH2] (HELM PEPTIDE1{[O=C(O)CCCCCCCCCCCCCCCCC(=O)[*:2]].[gGlu].[gGlu].[gGlu].[Sar].[Sar].[Sar].[Sar].[Sar].[Sar].[Sar].[Sar].[Sar].[Sar].[Sar].[Sar].[Sar].[Sar].[Sar].[O=C(CN1CCN(CCN[*:1])CC1)[*:2]].Y.F.[meL].[Nle].R.[meA].R.G.[am]}$$$$V2.0)
- EC50 [1]: 1100 nM
- Ki [2]: 76.3 nM
- EC50 [3]: 2.8 nM

SMILES: CCCC[C@H](NC(=O)[C@H](CC(C)C)N(C)C(=O)[C@H](Cc1ccccc1)NC(=O)[C@H](Cc1ccc(O)cc1)NC(=O)CN1CCN(CCNC(=O)CN(C)C(=O)CN(C)C(=O)CN(C)C(=O)CN(C)C(=O)CN(C)C(=O)CN(C)C(=O)CN(C)C(=O)CN(C)C(=O)CN(C)C(=O)CN(C)C(=O)CN(C)C(=O)CN(C)C(=O)CC[C@H](NC(=O)CC[C@H](NC(=O)CC[C@H](NC(=O)CCCCCCCCCCCCCCCCC(=O)O)C(=O)O)C(=O)O)C(=O)O)CC1)C(=O)N[C@@H](CCCNC(=N)N)C(=O)N(C)[C@@H](C)C(=O)N[C@@H](CCCNC(=N)N)C(=O)NCC(N)=O [Compound 12, C18DA-gGlu3-Sar12-AEPipAc-Tyr-Phe-NMeLeu-Nle-Arg-NMeAla-Arg-Gly-NH2]
- EC50 [1]: 1000 nM
- Ki [2]: 36.2 nM
- EC50 [3]: 2.7 nM

SMILES: CCCC[C@H](NC(=O)[C@H](CC(C)C)N(C)C(=O)[C@H](Cc1ccccc1)NC(=O)[C@H](Cc1ccc(O)cc1)NC(=O)CN1CCN(CCNC(=O)CN(C)C(=O)CN(C)C(=O)CN(C)C(=O)CN(C)C(=O)CN(C)C(=O)CN(C)C(=O)CN(C)C(=O)CN(C)C(=O)CN(C)C(=O)CC[C@H](NC(=O)CC[C@H](NC(=O)CC[C@H](NC(=O)CCCCCCCCCCCCCCCCCCC(=O)O)C(=O)O)C(=O)O)C(=O)O)CC1)C(=O)N[C@@H](CCCNC(=N)N)C(=O)N1CCC[C@H]1C(=O)N[C@@H](CCCNC(=N)N)C(=O)NCC(N)=O [Compound 65, C20DA-gGlu3-Sar9-AEPipAc-Tyr-Phe-NMeLeu-Nle-Arg-Pro-Arg-Gly-NH2] (HELM PEPTIDE1{[O=C(O)CCCCCCCCCCCCCCCCCCC(=O)[*:2]].[gGlu].[gGlu].[gGlu].[Sar].[Sar].[Sar].[Sar].[Sar].[Sar].[Sar].[Sar].[Sar].[O=C(CN1CCN(CCN[*:1])CC1)[*:2]].Y.F.[meL].[Nle].R.P.R.G.[am]}$$$$V2.0)
- EC50 [1]: 130 nM
- Ki [2]: 25.3 nM
- EC50 [3]: 2.8 nM

— US20240279278A1, “NMU RECEPTOR 2 AGONISTS” (Boehringer Ingelheim International GmbH, priority 2023, published 2024)
